Drawing on US4966973A, “2-substituted coumaran derivatives” (Takeda Chemical Industries, Ltd., priority 1988, dated 1990), this text covers inhibition for twelve molecules.

The assay has as its target T1, 5-lipoxygenase (Rattus norvegicus, UniProt P12527).
T1 construct: endogenous in cells; host or cells: RBL-1 (rat basophilic leukemia) cells
T1 sequence (P12527 1-673): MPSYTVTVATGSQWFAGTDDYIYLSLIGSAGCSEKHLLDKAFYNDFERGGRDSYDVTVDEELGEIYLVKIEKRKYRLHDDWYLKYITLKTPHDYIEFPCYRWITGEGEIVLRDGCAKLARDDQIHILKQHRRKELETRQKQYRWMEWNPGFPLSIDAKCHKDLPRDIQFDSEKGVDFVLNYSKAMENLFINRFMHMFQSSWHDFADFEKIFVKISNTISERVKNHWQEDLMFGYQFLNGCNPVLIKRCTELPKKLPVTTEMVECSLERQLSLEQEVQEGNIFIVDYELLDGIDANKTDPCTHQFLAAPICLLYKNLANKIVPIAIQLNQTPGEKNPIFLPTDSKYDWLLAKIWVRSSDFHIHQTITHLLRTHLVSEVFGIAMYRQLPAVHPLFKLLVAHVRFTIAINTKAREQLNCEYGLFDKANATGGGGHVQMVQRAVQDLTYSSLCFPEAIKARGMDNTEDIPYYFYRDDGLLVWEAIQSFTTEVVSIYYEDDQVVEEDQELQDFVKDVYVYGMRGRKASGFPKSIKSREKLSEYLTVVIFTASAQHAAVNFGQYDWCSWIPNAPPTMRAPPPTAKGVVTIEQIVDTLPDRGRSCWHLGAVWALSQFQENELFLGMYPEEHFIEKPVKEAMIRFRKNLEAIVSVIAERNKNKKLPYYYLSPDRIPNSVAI
Briefly: Effect of Inhibiting 5-Lipoxygenase (inhibition of 5-HETE production in RBL-1 cells, HPLC). It counts as cell-based. As to conditions: arachidonic acid + A-23187, 37° C., 20 min, read-out: % Inhibition (IE) of 5-HETE production; for inhibition at 10 µM: 10^-5 M; for inhibition at 1 µM: 10^-6 M; for inhibition at 0.1 µM: 10^-7 M; for inhibition at 0.01 µM: 10^-8 M. The method, then:
In 0.5 ml of MCM (mast cell medium) was suspended 10^7 of rat basophilic leukemia (RBL-1) cells. To this suspension was added the test solution previously prepared [consisting of 0.5 ml of MCM, […] of arachidonic acid, 10 μg of calcium ionophore A-23187 and the test compound (final concentrations 10 μM, 1 μM, 0.1 μM and 0.01 μM)], and the reaction was allowed to proceed at 37° C. for 20 minutes. To the reaction mixture was added 4 ml of ethanol, which was shaken sufficiently, followed by leaving the resultant mixture standing for 10 minutes at room temperatures. The resultant mixture was subjected to a centrifuge (2000 rpm) for 10 minutes, then the supernatant was separated. Thus-separated supernatant was concentrated to dryness under reduced pressure. To the concentrate was added 0.5 ml of a 60% aqueous methanol. A 100 μl portion of this solution was taken and subjected to high performance liquid chromatography to determine 5-HETE (5-hydroxyeicosatetraenoic acid) quantitatively. UV absorption of 5-HETE at 237 nm was measured with a UV absorption monitor. The inhibitory effect (IE) of 5-HETE is expressed by (1-b/a) x 100. In this formula, a means the height of the peak or the area of the peak in the case of presence of no compound (I), while b means the height of the peak or the area of the peak in the case of containing the compound (I).

Each structure is given as a SMILES string.

As to `Cc1c(C)c2c(c(C)c1O)CC(C)(CSc1ccccc1)O2` (centres unmarked) [Compound 19], the inhibition at 10 µM is 100%, the inhibition at 1 µM turned out to be 99%, the inhibition at 0.1 µM came out at 87% and the inhibition at 0.01 µM is -5%.
`Cc1c(C)c2c(c(C)c1O)CC(C[S+]([O-])c1ccccc1)O2` (centres unmarked) [Compound 13]: the inhibition at 10 µM came to 100%, the inhibition at 1 µM was determined as 100% and the inhibition at 0.1 µM is 8%.
In the case of `Cc1c(C)c2c(c(C)c1O)CC(CSc1ccc3ccccc3c1)O2` (centres unmarked) [Compound 11], the inhibition at 10 µM is 100%, the inhibition at 1 µM came to 100% and the inhibition at 0.1 µM was determined as 19%.
Turning to `Cc1c(C)c2c(c(C)c1O)CC(C)(CNCCc1ccccc1)O2` (centres unmarked) [Compound 25], the inhibition at 10 µM was 95%, the inhibition at 1 µM is 99%, the inhibition at 0.1 µM turned out to be 94% and the inhibition at 0.01 µM stood at 14%.
As to `Cc1c(C)c2c(c(C)c1O)CC(CSCCC(=O)O)O2` (centres unmarked) [Compound 1], the inhibition at 10 µM was 100%, the inhibition at 1 µM was found to be 100%, the inhibition at 0.1 µM was 64% and the inhibition at 0.01 µM turned out to be 13%.
Consider `Cc1c(C)c2c(c(C)c1O)CC(CSCc1ccccc1)O2` (centres unmarked) [Compound 17], for which the inhibition at 10 µM was 100%, the inhibition at 1 µM came to 100% and the inhibition at 0.1 µM is 88%.
With `Cc1c(C)c2c(c(C)c1O)CC(CSc1ccc(F)cc1)O2` (centres unmarked) [Compound 9], the inhibition at 10 µM is 100%, the inhibition at 1 µM is 100%, the inhibition at 0.1 µM worked out at 96% and the inhibition at 0.01 µM amounted to 8%.
Consider `Cc1c(C)c2c(c(C)c1O)CC(C)(CSc1ccc(F)cc1)O2` (centres unmarked) [Compound 21], for which the inhibition at 10 µM turned out to be 100%, the inhibition at 1 µM turned out to be 100%, the inhibition at 0.1 µM was found to be 98% and the inhibition at 0.01 µM was found to be 18%.
For `Cc1c(C)c2c(c(C)c1O)CC(CS(=O)(=O)c1ccccc1)O2` (centres unmarked) [Compound 15], the inhibition at 10 µM stood at 100%, the inhibition at 1 µM came to 100%, the inhibition at 0.1 µM was found to be 19% and the inhibition at 0.01 µM stood at 10%.
As to `Cc1c(C)c2c(c(C)c1O)CC(CSc1ccccc1)O2` (centres unmarked) [Compound 3], the inhibition at 10 µM turned out to be 100%, the inhibition at 1 µM was found to be 100%, the inhibition at 0.1 µM worked out at 100% and the inhibition at 0.01 µM worked out at 42%.
For `Cc1c(C)c2c(c(C)c1O)CC(CSc1ccccn1)O2` (centres unmarked) [Compound 7], the inhibition at 10 µM turned out to be 100%, the inhibition at 1 µM worked out at 100% and the inhibition at 0.1 µM was determined as 45%.
In the case of `CCCCCCCCSCC1Cc2c(C)c(O)c(C)c(C)c2O1` (centres unmarked) [Compound 5], the inhibition at 10 µM was 100%, the inhibition at 1 µM came to 100%, the inhibition at 0.1 µM worked out at 48% and the inhibition at 0.01 µM is 24%.

Usually inhibition stands for the drop in the measured response relative to a control, in per cent.
